Results as given in ChEMBL document CHEMBL1201862, “PubChem BioAssay data set” (2004).
The source made the active and inactive calls. No stated cut-off is given here; in the data, actives have a measured IC50 and inactives only a lower limit.

Target: Envelope glycoprotein gp160 (Human immunodeficiency virus 1, UniProt Q6QLK5)
Experiment: inhibitors of HIV fusion peptide binding, primary screen, biochemical, uHTS, fluorescence dequenching (AID 1986)

Envelope glycoprotein gp160, sequence (Q6QLK5 whole entry, the tested form may be a part): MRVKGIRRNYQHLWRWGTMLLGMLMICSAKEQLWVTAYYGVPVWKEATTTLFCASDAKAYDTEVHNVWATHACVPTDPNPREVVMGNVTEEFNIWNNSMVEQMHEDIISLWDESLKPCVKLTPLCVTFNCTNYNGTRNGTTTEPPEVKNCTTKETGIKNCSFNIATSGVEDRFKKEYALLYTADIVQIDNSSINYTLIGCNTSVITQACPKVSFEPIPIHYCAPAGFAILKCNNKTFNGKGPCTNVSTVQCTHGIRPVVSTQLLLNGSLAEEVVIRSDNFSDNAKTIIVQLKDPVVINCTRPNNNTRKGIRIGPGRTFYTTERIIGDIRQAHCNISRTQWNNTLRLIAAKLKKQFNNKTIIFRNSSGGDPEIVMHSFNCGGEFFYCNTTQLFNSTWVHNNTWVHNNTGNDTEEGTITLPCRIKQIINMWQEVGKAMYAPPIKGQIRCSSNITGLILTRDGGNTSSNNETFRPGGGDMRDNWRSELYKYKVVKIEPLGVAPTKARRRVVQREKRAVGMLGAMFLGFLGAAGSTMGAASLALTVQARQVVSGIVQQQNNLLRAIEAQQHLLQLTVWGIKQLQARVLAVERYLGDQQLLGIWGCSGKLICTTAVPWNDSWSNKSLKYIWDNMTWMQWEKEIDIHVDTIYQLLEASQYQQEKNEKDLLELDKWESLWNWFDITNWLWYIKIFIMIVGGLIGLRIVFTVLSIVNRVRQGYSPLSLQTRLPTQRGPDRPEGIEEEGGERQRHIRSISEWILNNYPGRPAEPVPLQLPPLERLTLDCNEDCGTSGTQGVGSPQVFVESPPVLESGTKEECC

In the case of `O=C(O)c1ccc(-c2ccc(/C=c3/sc4nc5ccccc5n4c3=O)o2)cc1Cl`, the IC50 is reported as 13.7 µM (active).
